Several values for one entry are separate records, joined by “and”; a condition that tells them apart may be missing. Identical values can stand only once. Inconclusive results and toxic doses are left out.
Test system: BDF1 mice, P388 leukemia ip, median survival T/C
Assay: NCI In Vivo Anticancer Drug Screen. Data for tumor model P388 Leukemia (intraperitoneal) in B6D2F1 (BDF1) mice
Settings: endpoint: median survival time, higher = longer survival
Method in brief: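 Transplantable tumour in mice; compound vs vehicle dosing; survival scored; ratio of treated to control reported.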

[1] = dose: 100.0 mg/kg/injection, schedule: Q04DX003 (ip), vehicle: saline
[2] = dose: 150.0 mg/kg/injection, schedule: Q04DX003 (ip), vehicle: saline
[3] = dose: 200.0 mg/kg/injection, schedule: Q04DX003 (ip), vehicle: saline
[4] = dose: 400.0 mg/kg/injection, schedule: Q01DX009 (ip), vehicle: saline
[5] = dose: 400.0 mg/kg/injection, schedule: Q04DX003 (ip), vehicle: saline
[6] = dose: 25.0 mg/kg/injection, schedule: Q04DX003 (ip), vehicle: saline with Tween-80
[7] = dose: 25.0 mg/kg/injection, schedule: Q01DX009 (ip), vehicle: saline with Tween-80
[8] = dose: 25.0 mg/kg/injection, schedule: Q01DX009 (ip), vehicle: saline
[9] = dose: 50.0 mg/kg/injection, schedule: Q01DX009 (ip), vehicle: saline
[10] = dose: 100.0 mg/kg/injection, schedule: Q01DX009 (ip), vehicle: saline
[11] = dose: 200.0 mg/kg/injection, schedule: Q01DX009 (ip), vehicle: saline
[12] = dose: 100.0 mg/kg/injection, schedule: Q01DX009 (ip), vehicle: saline with Tween-80
[13] = dose: 200.0 mg/kg/injection, schedule: Q01DX009 (ip), vehicle: saline with Tween-80
[14] = dose: 400.0 mg/kg/injection, schedule: Q01DX009 (ip), vehicle: saline with Tween-80
[15] = dose: 25.0 mg/kg/injection, schedule: Q04DX003 (ip), vehicle: Klucel (hydroxypropylcellulose) (HPC)
[16] = dose: 50.0 mg/kg/injection, schedule: Q01DX009 (ip), vehicle: saline with Tween-80
[17] = dose: 50.0 mg/kg/injection, schedule: Q04DX003 (ip), vehicle: saline with Tween-80
[18] = dose: 100.0 mg/kg/injection, schedule: Q04DX003 (ip), vehicle: saline with Tween-80
[19] = dose: 200.0 mg/kg/injection, schedule: Q04DX003 (ip), vehicle: saline with Tween-80
[20] = dose: 400.0 mg/kg/injection, schedule: Q04DX003 (ip), vehicle: saline with Tween-80
[21] = dose: 6.25 mg/kg/injection, schedule: Q01DX009 (ip), vehicle: saline with Tween-80
[22] = dose: 12.5 mg/kg/injection, schedule: Q01DX009 (ip), vehicle: saline with Tween-80
[23] = dose: 50.0 mg/kg/injection, schedule: Q04DX003 (ip), vehicle: saline

With `C1CNC2NCCNC2N1` (configuration not stated) the T/C (dose: 66.0 mg/kg/injection, schedule: Q04DX003 (ip), vehicle: saline) was 104 % of control, the T/C [1] was 100 % of control and the T/C (dose: 117.0 mg/kg/injection, schedule: Q04DX003 (ip), vehicle: saline) was 109 % of control. For the same molecule, the T/C (dose: 132.0 mg/kg/injection, schedule: Q01DX009 (ip), vehicle: saline) was 156 % of control, the T/C [2] was 100 % of control and the T/C (dose: 178.0 mg/kg/injection, schedule: Q04DX003 (ip), vehicle: saline) was 154 % of control. For the same molecule, the T/C [3] was 120 % of control, the T/C (dose: 266.0 mg/kg/injection, schedule: Q04DX003 (ip), vehicle: saline) was 122 % of control and the T/C (dose: 300.0 mg/kg/injection, schedule: Q01DX009 (ip), vehicle: saline) was 150 % of control. For the same molecule, the T/C [4] was 150 % of control and the T/C [5] was 172 % of control.
In the case of `CC1CN1S(=O)(=O)N1CC1C` (configuration not stated), the T/C (dose: 3.75 mg/kg/injection, schedule: Q01DX009 (ip), vehicle: saline with Tween-80) is reported as 100 % of control, the T/C (dose: 7.5 mg/kg/injection, schedule: Q01DX009 (ip), vehicle: saline with Tween-80) is reported as 112 % of control and the T/C (dose: 15.0 mg/kg/injection, schedule: Q01DX009 (ip), vehicle: saline with Tween-80) is reported as 158 % of control. The T/C (dose: 16.5 mg/kg/injection, schedule: Q04DX003 (ip), vehicle: saline with Tween-80) was 113 % of control, the T/C [6] was 154 % of control and 213 % of control and the T/C (dose: 30.0 mg/kg/injection, schedule: Q01DX009 (ip), vehicle: saline with Tween-80) was 258 % of control. For the same molecule, the T/C (dose: 37.5 mg/kg/injection, schedule: Q04DX003 (ip), vehicle: saline with Tween-80) was 204 % of control.
With `IC1CCCOC1[n+]1ccccc1` (configuration not stated) the T/C (dose: 6.0 mg/kg/injection, schedule: Q01DX009 (ip), vehicle: saline with Tween-80) was 104 % of control, the T/C (dose: 12.0 mg/kg/injection, schedule: Q01DX009 (ip), vehicle: saline with Tween-80) was 109 % of control and the T/C (dose: 12.5 mg/kg/injection, schedule: Q04DX003 (ip), vehicle: saline with Tween-80) was 96 % of control. For the same molecule, the T/C [7] was 104 % of control and the T/C [6] was 107 % of control.
For `CCOC(=O)c1c[nH]c2ccc(OC)cc2c1=O`, the T/C [8] was 111 % of control, the T/C [9] was 104 % of control and the T/C [10] was 117 % of control. The T/C [1] was 107 % of control, the T/C [11] was 113 % of control and the T/C [3] was 98 % of control. For the same molecule, the T/C [4] was 109 % of control and the T/C [5] was 100 % of control.
In the case of `c1ccc(-c2nnc3oc(-c4cccs4)nn23)cc1`, the T/C [12] is reported as 86 % of control, the T/C [13] is reported as 90 % of control and the T/C [14] is reported as 90 % of control.
In the case of `C#CC(N)=O`, the T/C (dose: 12.5 mg/kg/injection, schedule: Q04DX003 (ip), vehicle: Klucel (hydroxypropylcellulose) (HPC)) is reported as 100 % of control and the T/C [15] is reported as 90 % of control.
For `BrCc1ccc2c3c(ccc(CBr)c13)CC2`, the T/C (dose: 0.92 mg/kg/injection, schedule: Q04DX003 (ip), vehicle: saline) was 113 % of control, the T/C (dose: 3.1 mg/kg/injection, schedule: Q04DX003 (ip), vehicle: saline) was 120 % of control and the T/C (dose: 17.0 mg/kg/injection, schedule: Q04DX003 (ip), vehicle: Klucel (hydroxypropylcellulose) (HPC)) was 154 % of control. The T/C (dose: 25.0 mg/kg/injection, schedule: Q01DX009 (ip), vehicle: Klucel (hydroxypropylcellulose) (HPC)) was 118 % of control, the T/C (dose: 75.0 mg/kg/injection, schedule: Q01DX009 (ip), vehicle: Klucel (hydroxypropylcellulose) (HPC)) was 118 % of control and the T/C (dose: 100.0 mg/kg/injection, schedule: Q01DX009 (ip), vehicle: Klucel (hydroxypropylcellulose) (HPC)) was 95 % of control. The T/C (dose: 100.0 mg/kg/injection, schedule: Q04DX003 (ip), vehicle: Klucel (hydroxypropylcellulose) (HPC)) was 150 % of control, the T/C (dose: 200.0 mg/kg/injection, schedule: Q04DX003 (ip), vehicle: Klucel (hydroxypropylcellulose) (HPC)) was 154 % of control and the T/C (dose: 300.0 mg/kg/injection, schedule: Q04DX003 (ip), vehicle: Klucel (hydroxypropylcellulose) (HPC)) was 87 % of control and 100 % of control. The T/C (dose: 300.0 mg/kg/injection, schedule: Q04DX003 (ip), vehicle: saline) was 118 % of control and the T/C (dose: 400.0 mg/kg/injection, schedule: Q04DX003 (ip), vehicle: Klucel (hydroxypropylcellulose) (HPC)) was 122 % of control.
In the case of `CC(=O)C1CCC2C3CCC4=CC(=O)CC4(C)C3CCC12C` (configuration not stated), the T/C [16] is reported as 95 % of control, the T/C [17] is reported as 104 % of control and the T/C [12] is reported as 90 % of control and 100 % of control. The T/C [18] was 95 % of control and 104 % of control, the T/C [13] was 90 % of control and 95 % of control and the T/C [19] was 90 % of control and 95 % of control. The T/C [14] was 86 % of control and the T/C [20] was 90 % of control.
With `OCC1CSC(c2ccccc2)N1` (configuration not stated) the T/C [16] was 86 % of control, the T/C [12] was 115 % of control and the T/C [13] was 103 % of control.
For `C=C(C)C(=O)/C(=C/C(=O)O)OC`, the T/C (dose: 12.5 mg/kg/injection, schedule: Q01DX010 (ip), vehicle: saline) was 113 % of control, the T/C (dose: 25.0 mg/kg/injection, schedule: Q01DX010 (ip), vehicle: saline) was 109 % of control and the T/C (dose: 50.0 mg/kg/injection, schedule: Q01DX010 (ip), vehicle: saline) was 118 % of control.
In the case of `CCOC(=O)C1=C(O)c2c(sc(C)c2C)N(S(=O)(=O)c2ccc(C)cc2)CC1`, the T/C [7] is reported as 90 % of control, the T/C [16] is reported as 113 % of control and the T/C [17] is reported as 91 % of control. The T/C [12] was 104 % of control, the T/C [18] was 91 % of control and the T/C [13] was 109 % of control. For the same molecule, the T/C [19] was 91 % of control and the T/C [20] was 100 % of control.
In the case of `CCC1=C2C(=O)c3ccccc3C2=C(C)S(=O)(=O)O1`, the T/C [21] is reported as 113 % of control and 118 % of control, the T/C [22] is reported as 118 % of control and the T/C [7] is reported as 122 % of control.
For `O=c1[nH]nc(-c2ccccc2)nc1/C(=N\Nc1ccccc1)c1ccccc1`, the T/C (dose: 1.56 mg/kg/injection, schedule: Q01DX009 (ip), vehicle: saline with Tween-80) was 92 % of control, the T/C (dose: 3.12 mg/kg/injection, schedule: Q01DX009 (ip), vehicle: saline with Tween-80) was 107 % of control and the T/C [21] was 95 % of control and 98 % of control. For the same molecule, the T/C [22] was 101 % of control and the T/C [7] was 92 % of control.
In the case of `O=c1[nH]cnc2ccnn12`, the T/C [8] is reported as 103 % of control, the T/C [9] is reported as 100 % of control and the T/C (dose: 75.0 mg/kg/injection, schedule: Q01DX009 (ip), vehicle: saline) is reported as 101 % of control. The T/C [10] was 100 % of control and the T/C [11] was 90 % of control.
For `O=C(Nc1cccc(C(F)(F)F)c1)Nc1c(Oc2ccc(Cl)c(Cl)c2)ccc(Cl)c1S(=O)(=O)O`, the T/C [23] was 90 % of control, the T/C [1] was 100 % of control and the T/C [3] was 113 % of control.
`Cc1c(-c2ccccc2)cc(O)cc1-c1ccccc1` was tested, and the T/C (dose: 12.5 mg/kg/injection, schedule: Q04DX003 (ip), vehicle: saline) was 101 % of control, the T/C (dose: 25.0 mg/kg/injection, schedule: Q04DX003 (ip), vehicle: saline) was 97 % of control and 114 % of control and the T/C [23] was 102 % of control (2×) and 112 % of control. The T/C [1] was 88 % of control and 109 % of control, the T/C [2] was 93 % of control and the T/C [3] was 93 % of control and 101 % of control and 102 % of control.
With `CCN(CC)c1ccc(NC(=O)Nc2ccccc2C)cc1` the T/C [18] was 95 % of control, the T/C [19] was 95 % of control and the T/C [20] was 90 % of control.
In the case of `COC(=O)/C(C)=C/C1N=C1c1ccccc1` (configuration not stated), the T/C (dose: 100.0 mg/kg/injection, schedule: Q01DX001 (ip), vehicle: saline with Tween-80) is reported as 120 % of control.
In the case of `COC(=O)CCC(=O)Nc1ccc(C(=O)CBr)cc1`, the T/C [15] is reported as 107 % of control and the T/C (dose: 50.0 mg/kg/injection, schedule: Q04DX003 (ip), vehicle: Klucel (hydroxypropylcellulose) (HPC)) is reported as 97 % of control.
